Like-named read-outs stand apart in the source and are kept apart here. Values belong to the molecule of their own block, whether it stands above or below them.
Columns and labels:
[1] = test system: normal liver cells immortalized MIHA; test: MTT cytotoxicity assay on normal liver cells immortalized MIHA; format: cell-based, human; details: for Survival rate (%): MTT, 72 h
Protocol: The cytotoxicity of Compound A to normal liver cells immortalized MIHA is tested with MTT assay.
For MTT assay, 10 μL MTT solution is added into each well of a 96-well plate. After 2 h incubation at 37° C., 100 μL 10% SDS solution with 10 mM HCl is added to dissolve the purple crystals. After 24 h incubation, the optical density (OD) readings at 595 nm are measured using a Perkin-Elmer Victor plate reader. The values of IC50 are determined using the method described in the cited literatures with some modifications. To determine the IC50 value of a compound in a cell line, the growth inhibitory effect of Compound A at different concentrations is measured by MTT assay. For each tested concentration, 3000 cells suspended in 100 μL culture medium are seeded in each well of a 96-well plate. The well containing 100 μL culture medium without cells is used as a blank. After an overnight culture, Compound A at the designed concentration is added. The OD values of the control group at 0 h (C0) and 72 h (C72) together with the compound treated groups at 72 h (T72) from the MTT assay are measured using the Perkin-Elmer Victor plate reader. The survival rates are calculated using the formula (T72−C0)/(C72−C0)×100%. The inhibition rates are calculated using the following formula [1−(T72−C0)/(C72−C0)]×100% and plotted against logarithmic concentrations by sigmoidal fit. IC50 is defined as the concentration of a compound inhibiting 50% of cell growth. Each IC50 test is performed in triplicate and repeated at least three times.

HepG2 = test: MTT cell viability assay, HepG2; format: cell-based; details: Homo sapiens; for IC50: HepG2, MTT
Description: (§1) Curcumin and paclitaxel are used as the positive control.

MDA-MB-231 = test: MTT cell viability assay, MDA-MB-231; format: cell-based; details: Homo sapiens; MDA-MB-231, MTT, 72 h; read-out: Cytotoxicity Data IC50
Description: as §1

U87 = test: MTT cell viability assay, U87; details: Homo sapiens, U-87 MG, 72 h, read-out: Cytotoxicity Data IC50 (μM)
Protocol: (§2) All test samples are dissolved in dimethyl sulfoxide (DMSO) to make stock solutions and further diluted in culture medium upon assay. Human cancer cell lines including U87, MDA-MB-231, AGS and HepG2 are cultured in RPMI 1640 or DMEM or DMEM/F12 medium, containing 10% fetal bovine serum. All cell lines are maintained at 37° C. in a humidified environment containing 5% CO2. To determine the effects of the compounds on cell viability, cell number is quantified using a standard colorimetric MTT assay. Cells are placed in a 96-well plate (5×10^3 cells/well) and allowed to attach overnight. Cells are treated with 5, 10, 20, 40 μM of each compound in culture medium for 72 h, respectively. Then, culture media are added with 20 μL of MTT (5 mg/mL stock in PBS) per well and incubated for 4 h at 37° C. Finally, culture media are discarded and 150 μL of DMSO is added to each well to dissolve the purple formazan crystals. Absorbance of the solution is measured using microplate reader spectrophotometer (Bio-Rad Laboratories, Inc., Hercules, Calif.), at a wavelength of 490 nm. Absorbance of untreated cells in medium (negative control) is 100%. Curcumin and paclitaxel are used as the positive control.

AGS = test: MTT cell viability assay, AGS; details: Homo sapiens, 72 h, read-out: Cytotoxicity Data IC50 (μM)
Protocol: as §2

IC50 (HepG2; read-out: IC50 on HepG2 cells growth): 5.3 µg/mL
SMILES: COc1c(O)c(O)c2c(=O)c3c(CC=C(C)C)c(CC=C(C)C)c(O)c(O)c3oc2c1CC=C(C)C [Compound A, 1,2,5,6-tetrahydroxy-3-methoxy-4,7,8-tri(3-methylbut-2-enyl)-xanthone]
Survival rate (%) ([1]; compound A 5 μg/mL): 101.7881%
Survival rate (%) ([1]; compound A 10 μg/mL): 85.45%
Survival rate (%) ([1]; compound A 20 μg/mL): 85.89%
Survival rate (%) ([1]; compound A 40 μg/mL): 68.01%
half toxic concentration TC50 ([1]; from survival rate curve (FIG. 1)): > 40 µg/mL
toxicity on normal cells ([1]; result in words): low toxicity
inhibition at 0.8 µg/mL (HepG2; HepG2, compound A 0.8 μg/mL, MTT, read-out: Inhibition rate %): 7.79%
inhibition at 1.6 µg/mL (HepG2; HepG2, compound A 1.6 μg/mL, MTT, read-out: Inhibition rate %): 8.16%
inhibition at 3.125 µg/mL (HepG2; HepG2, compound A 3.125 μg/mL, MTT, read-out: Inhibition rate %): 15%
inhibition at 6.25 µg/mL (HepG2; HepG2, compound A 6.25 μg/mL, MTT, read-out: Inhibition rate %): 59.2%
inhibition at 12.5 µg/mL (HepG2; HepG2, compound A 12.5 μg/mL, MTT, read-out: Inhibition rate %): 75.6%
inhibition at 25 µg/mL (HepG2; HepG2, compound A 25 μg/mL, MTT, read-out: Inhibition rate %): 76.6%
inhibition at 50 µg/mL (HepG2; HepG2, compound A 50 μg/mL, MTT, read-out: Inhibition rate %): 69.3%
inhibition at 100 µg/mL (HepG2; HepG2, compound A 100 μg/mL, MTT, read-out: Inhibition rate %): 74.3%

SMILES: COc1c(OC)c(O)c2c(=O)c3c(CC=C(C)C)c(CC=C(C)C)c(O)c(O)c3oc2c1CC=C(C)C [Compound B]
IC50 (HepG2; 72 h, read-out: Cytotoxicity Data IC50): 20.3 µM
IC50 (MDA-MB-231): 70.5 µM
IC50 (U87): 55.3 µM
IC50 (AGS): 31.1 µM

SMILES: COc1cc(/C=C/C(=O)CC(=O)/C=C/c2ccc(O)c(OC)c2)ccc1O [Curcumin]
IC50 (MDA-MB-231): 3.76 µM
IC50 (U87): 20.8 µM
IC50 (AGS): 4.38 µM

SMILES: CC(=O)O[C@H]1C(=O)[C@@]2(C)[C@H]([C@H](OC(=O)c3ccccc3)[C@]3(O)C[C@H](OC(=O)[C@H](O)[C@@H](NC(=O)c4ccccc4)c4ccccc4)C(C)=C1C3(C)C)[C@]1(OC(C)=O)CO[C@@H]1C[C@@H]2O [Paclitaxel]
IC50 (U87): 285 µM
IC50 (AGS): 23.1 µM
